# Laboratory results published in the supplement of paper PMC10307832.
# Experiments:
# Assay in all cases: relative viability (nuclei count vs DMSO), 5 days (fraction); higher = more cells survive
# [1] = compound: CC[C@H](CO)Nc1nc(NCc2ccccc2)c2ncn(C(C)C)c2n1 [Seliciclib] + CC(=O)c1c(C)c2cnc(Nc3ccc(N4CCNCC4)cn3)nc2n(C2CCCC2)c1=O [Palbociclib] (partner 0.5 µM)
# How it was run: (§1)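 Lung cancer cell lines in 1536-well plates were dosed by pin tool the day after seeding, either with one drug alone or with a fixed anchor-drug dose plus five library-drug doses (not always all listed) in √10 steps. After 5 days, cells were fixed and their nuclei stained in one step (final 0.05% Triton X-100, 1% formaldehyde, 1 ug/ml Hoechst), then counted on 4× images. Relative viability is the nuclei count in treated wells divided by that in vehicle wells. Values are medians of duplicate plates.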
# [2] = compound: CC[C@H](CO)Nc1nc(NCc2ccccc2)c2ncn(C(C)C)c2n1 [Seliciclib] + CC(C)C[C@H](NC(=O)[C@H](Cc1ccccc1)NC(=O)c1cnccn1)B(O)O [Bortezomib] (partner 0.002 µM)
# How it was run: as §1
# [3] = compound: CC[C@H](CO)Nc1nc(NCc2ccccc2)c2ncn(C(C)C)c2n1 [Seliciclib] + Cc1nc(NC(=O)N2CCC[C@H]2C(N)=O)sc1-c1ccnc(C(C)(C)C(F)(F)F)c1 [Alpelisib] (partner 2 µM)
# How it was run: as §1
# [4] = compound: CC[C@H](CO)Nc1nc(NCc2ccccc2)c2ncn(C(C)C)c2n1 [Seliciclib] + Cc1nc(Nc2ncc(C(=O)Nc3c(C)cccc3Cl)s2)cc(N2CCN(CCO)CC2)n1 [Dasatinib] (partner 0.075 µM)
# How it was run: as §1
Cell Line,relative viability ([1]; first compound 0.08 µM),relative viability ([1]; first compound 0.253 µM),relative viability ([1]; first compound 0.8 µM),relative viability ([1]; first compound 2.53 µM),relative viability ([1]; first compound 8 µM),relative viability ([2]; first compound 0.08 µM),relative viability ([2]; first compound 0.253 µM),relative viability ([2]; first compound 0.8 µM),relative viability ([2]; first compound 2.53 µM),relative viability ([2]; first compound 8 µM),relative viability ([3]; first compound 0.08 µM),relative viability ([3]; first compound 0.253 µM),relative viability ([3]; first compound 0.8 µM),relative viability ([3]; first compound 2.53 µM),relative viability ([3]; first compound 8 µM),relative viability ([4]; first compound 0.08 µM),relative viability ([4]; first compound 0.8 µM),relative viability ([4]; first compound 2.53 µM),relative viability ([4]; first compound 8 µM),relative viability ([4]; first compound 0.253 µM)
NCI-H520,0.237,0.187,0.17,0.189,0.203,0.521,0.507,0.581,0.679,0.429,0.897,0.682,0.831,1.02,0.931,0.167,0.258,0.219,0.178,–
NCI-H661,0.396,0.401,0.359,0.286,0.292,0.778,0.871,0.675,0.79,0.58,0.736,0.781,0.653,0.437,0.5,0.832,0.9,0.739,0.547,1.03
NCI-H650,0.357,0.264,0.402,0.248,0.234,0.764,0.813,1.15,–,0.682,1.05,1.02,1.35,–,0.872,0.447,0.596,0.262,0.39,0.387
NCI-H647,0.321,0.188,0.395,0.296,0.216,0.789,0.849,0.941,1.05,0.891,0.952,1.1,0.978,1.15,0.618,0.225,0.209,0.166,0.189,–
201T,0.329,0.349,0.353,0.327,0.277,1.12,1.18,1.07,1.1,1.01,1.01,1.02,0.997,0.997,0.966,0.502,0.589,0.385,0.548,0.654
NCI-H838,0.216,0.257,0.211,0.169,0.197,0.82,0.879,0.762,0.727,0.487,0.971,0.853,0.884,1.14,0.94,0.341,0.26,0.218,0.303,0.198
SW 1573,0.332,0.315,0.368,0.361,0.292,0.923,0.876,1.02,1.02,0.868,0.653,0.805,0.786,0.712,0.567,0.608,0.524,0.35,0.301,0.525
PC-14,0.444,0.65,0.517,0.391,0.275,0.832,0.836,0.877,0.846,0.701,0.86,0.871,0.878,0.909,0.854,0.288,0.269,0.215,0.23,0.396
COR-L23,0.298,0.315,0.262,0.19,0.165,1.01,1.1,0.962,1.06,0.751,0.708,0.868,0.764,0.78,0.538,0.457,0.484,0.342,0.383,0.644
HCC-78,0.504,0.438,0.514,0.395,0.382,0.532,0.471,0.433,0.373,0.396,0.375,0.358,0.329,0.285,0.339,0.427,0.371,0.259,0.28,0.416
NCI-H2405,0.485,0.483,0.552,0.361,0.452,0.984,0.956,0.946,0.922,0.905,0.718,0.698,0.642,0.689,0.729,0.211,0.197,0.171,0.212,0.219
SK-LU-1,0.408,0.389,0.403,0.346,0.313,1.07,1.23,1.3,1.08,0.771,1,1.05,1.04,0.795,0.636,0.173,0.183,0.142,0.141,0.184
EMC-BAC-2,0.516,0.474,0.543,0.423,0.455,1.05,0.91,1.11,0.836,1.07,0.759,0.731,0.739,0.774,0.703,0.305,0.399,0.218,0.277,0.288
LCLC-97TM1,0.219,0.242,0.186,0.184,0.108,0.816,0.767,0.646,0.163,0.195,0.243,0.308,0.382,–,0.23,0.758,0.732,0.333,0.704,0.965
H3255,0.344,0.314,0.306,0.26,0.293,0.833,0.828,0.753,0.605,0.625,0.608,0.667,0.721,0.806,0.587,0.341,0.335,0.279,0.324,0.447
LXF-289,0.561,0.677,0.59,0.543,0.501,0.981,1.11,0.904,0.971,0.838,1.01,1.09,1.02,1.02,0.891,0.245,0.248,0.128,0.221,0.202
UMC-11,0.317,0.27,0.325,0.312,0.303,0.715,0.932,0.831,0.827,0.529,0.856,0.896,0.995,1.24,0.823,0.517,0.491,0.507,0.458,0.52

Cell Line,relative viability ([1]; first compound 0.08 µM),relative viability ([1]; first compound 0.253 µM),relative viability ([1]; first compound 0.8 µM),relative viability ([1]; first compound 2.53 µM),relative viability ([1]; first compound 8 µM),relative viability ([2]; first compound 0.08 µM),relative viability ([2]; first compound 0.253 µM),relative viability ([2]; first compound 0.8 µM),relative viability ([2]; first compound 2.53 µM),relative viability ([2]; first compound 8 µM),relative viability ([3]; first compound 0.08 µM),relative viability ([3]; first compound 0.253 µM),relative viability ([3]; first compound 0.8 µM),relative viability ([3]; first compound 2.53 µM),relative viability ([3]; first compound 8 µM),relative viability ([4]; first compound 0.08 µM),relative viability ([4]; first compound 0.8 µM),relative viability ([4]; first compound 2.53 µM),relative viability ([4]; first compound 8 µM),relative viability ([4]; first compound 0.253 µM)
LC-2-ad,0.49,0.524,0.494,0.466,0.371,1.02,0.514,0.986,0.958,0.816,0.852,0.852,0.4,0.899,0.635,0.638,0.63,0.326,0.459,0.802
A-427,0.488,0.55,0.504,0.468,0.427,0.975,0.944,1.04,0.925,0.916,1.05,1.16,1.12,1.08,0.927,0.612,0.687,0.735,0.738,0.691
NCI-H322M,0.472,0.538,0.467,0.428,0.431,1.21,1.4,1.18,1.23,1.09,0.87,0.876,0.692,0.822,0.73,0.257,0.263,0.232,0.219,0.267
HCC-366,0.35,0.272,0.345,0.328,0.166,0.987,1.06,1.01,1.08,0.908,0.367,0.302,0.342,0.344,0.371,0.565,0.57,0.381,0.473,0.376
NCI-H1975,0.619,0.342,0.55,0.389,0.339,0.372,0.348,0.345,0.322,0.218,0.653,0.526,0.602,0.621,0.445,0.409,0.424,0.326,0.314,0.374
NCI-H1437,0.323,0.324,0.298,0.221,0.223,0.436,0.524,0.47,0.422,0.39,0.919,0.855,1.02,1.02,0.935,0.465,0.323,0.233,0.335,0.438
NCI-H2009,0.202,0.0934,0.162,0.155,0.161,1.05,1.21,0.908,0.911,0.941,1.14,1.31,1.15,1.14,1.23,0.322,0.307,0.233,0.288,0.376
NCI-H1651,0.51,0.512,0.502,0.436,0.411,1,0.925,0.897,0.836,0.947,0.93,0.839,0.833,0.81,0.804,0.403,0.536,0.302,0.382,0.399
LCLC-103H,0.524,0.51,0.486,0.469,0.423,0.94,1.03,0.92,0.939,1.01,0.992,0.957,0.869,1.05,0.906,0.535,0.57,0.276,0.481,0.499
NCI-H1666,0.635,0.633,0.666,0.603,0.5,0.799,0.739,0.809,0.66,0.568,1.04,0.985,0.846,0.923,0.516,0.732,0.875,0.605,0.551,0.888
NCI-H1734,0.35,0.26,0.369,0.286,0.282,0.873,0.833,0.882,1.08,0.824,0.659,0.651,0.622,0.683,0.674,0.488,0.493,0.295,0.335,0.426
EPLC-272H,0.33,0.247,0.284,0.323,0.311,0.872,0.676,0.991,1.03,0.907,0.968,0.847,0.795,1.04,0.895,0.329,0.408,0.183,0.266,0.298
NCI-H2023,0.366,0.324,0.295,0.183,0.159,0.998,1.1,1.1,0.747,0.84,0.548,0.542,0.523,0.58,0.531,0.534,0.606,0.434,0.477,0.407
BEN,0.476,0.469,0.473,0.499,0.453,0.871,–,0.82,0.701,0.659,1.13,–,0.844,1.12,0.862,0.311,0.375,0.271,0.322,0.313
COR-L 105,0.432,0.392,0.276,0.365,0.397,0.876,0.961,0.676,0.535,0.774,0.994,0.808,1.05,1.04,0.748,0.377,0.324,0.311,0.37,0.405
ABC-1,0.673,0.565,0.863,–,0.562,0.318,0.312,0.296,0.274,0.339,0.819,0.888,0.775,0.964,0.931,0.536,0.598,0.524,0.509,0.566
